The values below come from patent publication US10682317B2 (ZOGENIX INTERNATIONAL LIMITED, priority 2017, dated 2020).

Series [1] addresses T1, vesicular glutamate transporter, VGLUT2 (Homo sapiens, UniProt Q9P2U8).
T1 sequence (Q9P2U8 1-582): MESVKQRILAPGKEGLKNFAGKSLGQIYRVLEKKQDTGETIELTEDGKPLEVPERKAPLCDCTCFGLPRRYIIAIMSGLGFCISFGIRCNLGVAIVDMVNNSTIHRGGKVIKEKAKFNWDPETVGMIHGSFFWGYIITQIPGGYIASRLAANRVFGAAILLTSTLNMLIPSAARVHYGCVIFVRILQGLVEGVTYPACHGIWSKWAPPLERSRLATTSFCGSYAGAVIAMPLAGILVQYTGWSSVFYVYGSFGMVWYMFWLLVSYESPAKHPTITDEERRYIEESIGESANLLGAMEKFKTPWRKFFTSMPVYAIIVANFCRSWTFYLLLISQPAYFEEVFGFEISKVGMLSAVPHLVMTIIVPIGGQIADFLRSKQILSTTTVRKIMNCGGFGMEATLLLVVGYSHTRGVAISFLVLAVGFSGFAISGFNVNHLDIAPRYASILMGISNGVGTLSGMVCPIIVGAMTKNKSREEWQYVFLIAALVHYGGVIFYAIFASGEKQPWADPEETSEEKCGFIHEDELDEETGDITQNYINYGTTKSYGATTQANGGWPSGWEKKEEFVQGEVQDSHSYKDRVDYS
Conditions: concentrations expected during the ketogenic diet; cited from earlier work.

Series [2] can be described thus: Particle size of drug substance batches. The series is classed as physicochemical. The source says:
Fenfluramine hydrochloride drug substance is non-micronized. The range of particle size parameters obtained from five GMP batches (two clinical batches manufactured by Onyx, and three registration batches manufactured by Aptuit) is listed in Table 1.

The nature of series [3]: Aqueous solubility of the drug substance. Conditions: aqueous solution.
The conditions of series [4]: pH 6.8.
The nature of series [5]: Solid state stability and polymorph screening. The series is classed as physicochemical.
Series [6] in a line: Buffer system selection: stability of pH prototypes. Type of series: physicochemical. Conditions: pH range of 4.5 to 6.5, citrate or citrate-phosphate buffer prototypes. How it is done:
A pH range of 4.5 to 6.5 was investigated during formulation development studies. Various prototypes were prepared with either citrate buffer or citrate-phosphate buffer, depending on target pH. […] Based on initial stability data, a target pH of 5.0 (range: 4.5-5.5) was selected because it minimized the preservatives degradation at long-term and accelerated stability conditions without causing precipitation in product stored at 2-8° C. The buffer components in the drug product formulation are tripotassium citrate and citric acid. Potassium citrate was used instead of sodium citrate to avoid common ion effect with the paraben sodium salts, which may have contributed to precipitation in prototypes containing sodium citrate.

Series [7] concerns food intake / carbohydrate craving. As to the kind of experiment: Anorectic effect, food intake and carbohydrate craving. The series is classed as in vivo, human. As to conditions: surprisingly low dose, compared to 60-120 mg/day for obesity. The procedure: (§1) The overall anorectic effect of dexfenfluramine is greater than that of […] in experimental animals (Garratini et al. 1988) and humans (Goodall et al. 1992). […] Put differently, a preferred dose is not more than about 30 mg/day, and less than about 1 to about 0.01 mg/kg/day.

Series [8] relates to seizures. As to the kind of experiment: Treatment of seizures in epilepsy patients. Type of series: in vivo, human.
Source text: Clemens, in Epilepsy Research (1988) 2:340-343 reported a study on a child suffering pattern sensitivity-induced seizures that were resistant to anticonvulsive treatment.
This is confirmed, for example, in the article by Ceulemans et al., Epilepsia (2012) 53(7):1131-1139, the contents of which are incorporated herein.
as §1

The test system of series [9] is cardiac fibrosis and pulmonary hypertension. Conditions: marketed use for obesity; cited from earlier work.
Series [10] relates to seizures. Conditions: cited from earlier work.
For series [11], the system named is food intake / carbohydrate craving. Conditions: cited from earlier work.
The nature of series [12]: Paraben preservative degradation (hydrolysis). Conditions: pH 6. Type of series: physicochemical. The source says: The pH of the drug product formulation was optimized to minimize the preservative degradation.
Like methylparaben, ethylparaben degrades in solution by hydrolysis. The rate increases at higher pH. The pH of the drug product formulation was optimized to minimize the preservative degradation while maintaining adequate solubility, and no significant increase in the preservatives degradation product has been observed in long-term stability studies.

For series [13] the following is noted: cited from earlier work.
[14] abbreviates: clinical and registration batches 1-5, hydrochloride.

≈ marks a conversion by molar mass, not a printed value. Where “and” joins values, the source holds several entries; their conditions need not be identical. Identical values can stand only once. Counter-ions that a name gives are not always drawn. Like-named read-outs stand apart in the source and are kept apart here. Where only a bound is given, the exact number is not on record here.

Take `CC(=O)CC(=O)O` [acetoacetate]: the “glutamate transport by VGLUT2” value in [1] is “inhibited”.
For `CCNC(C)Cc1cccc(C(F)(F)F)c1` (stereo not shown) [fenfluramine hydrochloride], in series [2] (setting [14]), the D50 is 6.99 μm and 6.79 μm and 8.92 μm and 8.20 μm and 6.16 μm; the D90 is 23.01 μm and 26.25 μm and 32.08 μm and 27.04 μm and 18.96 μm. Moreover, in series [2] (experimental batch), the “median particle size (D50)” value is 60 μm and the “ninetieth percentile (D90)” value was determined as 250 μm. The “time needed for complete dissolution in the formulation vehicle” value in [2] (experimental batch vs micronized portions of the same batch) is listed as “no difference was observed in the time needed for complete dissolution”. Also, in [3] (25 °C, pH 1.7, simulated gastric fluid), the solubility is approximately 25 mg/mL. The compound further gave a solubility in series [3] (25 °C, pH 6.7, aqueous buffer) of more than 50 mg/mL. In addition, the solubility in series [3] (37 °C, aqueous buffer) was 54 to 96 mg/mL. The “time for which the solution is stable” value in series [4] was “at least 6 months”. Also, the polymorphs observed result in series [5] (polymorph screening study, accelerated and long-term stability studies) was “no other polymorphs have been observed”. Further, the solid state stability entry in [5] (solid state) was “chemically and physically stable in the solid state”. Moreover, the “stability over pH range” value in [6] was “stable over the entire range of pH”.
Take `CCNC(C)Cc1cccc(C(F)(F)F)c1` (stereo not shown) [fenfluramine, 3-trifluoromethyl-N-ethylamphetamine]: the “appetite and craving for carbohydrates” value in series [7] is “effective in reducing appetite and craving for carbohydrates”. For the same compound, the effect on seizures result in the series with seizures [8] (patients with Dravet syndrome, Lennox-Gastaut syndrome, or Doose syndrome) is listed as “reduce or eliminate seizures”; in the series on seizures [10] (child with pattern sensitivity-induced seizures resistant to anticonvulsive treatment) it was “successfully terminated these self-induced seizures”. The “efficacy of low doses on seizures” value in the series with seizures [8] (surprisingly low doses, Dravet, Lennox-Gastaut or Doose syndrome patients) is “efficacious”. Moreover, the “adverse effects associated with use” value in series [9] is “associated with the onset of cardiac fibrosis and pulmonary hypertension”. In the series on seizures [10] (children with refractory epilepsy, 0.5 to 1 mg/kg/day), the number of seizures result is recorded as “reduction in the number of seizures”. Also, the response of seizures entry in the series with seizures [10] (four cases of self-induced photosensitive seizures) is reported as “responded to treatment”. Also, the therapeutic benefit result in the series on seizures [10] (patients with intractable epilepsy) is “appeared to be of therapeutic benefit”.
Regarding `CCN[C@@H](C)Cc1cccc(C(F)(F)F)c1` (racemic) [Dexfenfluramine], the carbohydrate craving entry in series [11] (adults, 30 mg/day) is given as “reduction in carbohydrate craving”. In addition, the “suppression of food intake” value in series [11] (dose of 30 mg) is “suppressed food intake to the same degree as fenfluramine 60 mg”. For the same compound, the “anorectic potency vs racemic mixture fenfluramine” value in series [11] (group of 16 human subjects) is “twice the anorectic potency”.
With `COC(=O)c1ccc(O)cc1.[Na]` [Methylparaben sodium, sodium methyl p-hydroxybenzoate], the stability against hydrolysis result in series [12] is “acceptable stability below pH 6”.
Turning to `CCOC(=O)c1ccc(O)cc1` [ethylparaben, ethyl 4-hydroxybenzoic acid], the “solubility of the free acid in water” value in series [13] (20° C.) was 0.07%; in [13] (25° C.), 0.08%. Further, the solubility in series [13] is 0.8 mg/mL (≈ 4.81 mM).
